Among the data in patent publication US20240166652A1, “MODULATORS OF THE INTEGRATED STRESS PATHWAY” (Calico Life Sciences LLC, priority 2017, published 2024) are EC50 values, retold here.

One may read the EC50 as the concentration needed to bring the measured effect to its halfway point.

Each structure is given as a SMILES string. A value given as a limit tells only on which side of the number the result lay.

Experiment [1] addresses T1, eIF2B mutant B3 I346T (HEK293T ATF4-Fluc cells) (Homo sapiens, UniProt P49770+Q9NR50+Q9UI10, I346T).
T1 construct: endogenous in cells
The experiment can be described thus: ATF4-Luc assay, VWMD eIF2B mutant B3 I346T. It counts as cell-based. The settings on record: 1 μg/mL tunicamycin, 7 hours. The method, then: (§1) In order to test exemplary compounds of the invention in a cellular context, a stable VWMD cell line was first constructed. The ATF4 reporter was prepared by fusing the human full-length ATF4 5′-UTR (NCBI Accession No. BC022088.2) in front of the firefly luciferase (FLuc) coding sequence lacking the initiator methionine as described in Sidrauski et al (eLife 2013). The construct was used to produce recombinant retroviruses using standard methods and the resulting viral supernatant was used to transduce HEK293T cells, which were then subsequently selected with puromycin to generate a stable cell line.
(§2) HEK293T cells carrying the ATF4 luciferase reporter were plated on polylysine coated 384-well plates (Greiner Bio-one) at 30,000 cells per well. Cells were treated the next day with 1 μg/mL tunicamycin and 200 nM of a compound of Formula (I) for 7 hours. Luminescence was measured using One Glo (Promega) as specified by the manufacturer. Cells were maintained in DMEM with L-glutamine supplemented with 10% heat-inactivated FBS (Gibco) and Antibiotic-Antimycotic solution (Gibco).
(§3) VWMD mutations were introduced into the genome of the HEK293T ATF4-Fluc stable cell lines by using Gene Art CRISPR nuclease vector with OFP Reporter kit (ThermoFisher; see Table 3 below). Guide RNAs were designed using the CRISPR Design Tool (http://crispr.mit.edu) and ligated into the CRISPR OFP Nuclease Vector. To obtain homology directed repair (HDR) incorporating VWMD point mutations in the genome, 150 bp ssDNA ultramer oligos were synthesized by Integrated DNA Technologies containing specific mutations of interest. In addition to the VWMD mutations, the ssDNA HDR templates contained a silent mutation to the PAM site of the CRISPR gRNA sequence (to avoid further Cas9 cutting) and 75 bp of homology on each side of the mutation.
(§4) HEK293T ATF4-Fluc cells were transfected with 500 ng of the CRISPR OFP Nuclease Vector and 1 uL of 10 μM ssDNA HDR template using lipofectamine 3000 (ThermoFisher) or SF Cell Line 4D-nucleofector X Kit (Lonza) according to the manufacturer's instructions. After 2-3 days of recovery, single cells were sorted for positive OFP expression on a FACS Aria II (BD Biosciences) into wells of a 96 well plate and allowed to recover for 1-2 weeks.
(§5) The resulting clones were surveyed for CRISPR editing and HDR by harvesting the genomic DNA with the PureLink Genomic DNA kit (ThermoFisher), amplifying a […] locus near the editing site, and sequencing the amplicon. […] Typical clones obtained were hemizygous for the VWMD point mutation, with one or two alleles harboring the desired mutation, and the remaining alleles knocked out (edited to produce a premature stop codon). […]

In experiment [2] the target is T2, eIF2B mutant B5 R113H (HEK293T ATF4-Fluc cells) (Homo sapiens, UniProt P49770+Q13144+Q9UI10, R113H).
T2 construct: endogenous in cells
The experiment can be described thus: ATF4-Luc assay, VWMD eIF2B mutant B5 R113H. It counts as cell-based. The note with it: 1 μg/mL tunicamycin, 7 hours. The protocol: as §1, §2, §3, §4, §5

Experiment [3] deals with T3, eIF2B mutant B4 R357W (HEK293T ATF4-Fluc cells) (Homo sapiens, UniProt P49770+Q9UI10, R357W).
T3 construct: endogenous in cells
The experiment can be described thus: ATF4-Luc assay, VWMD eIF2B mutant B4 R357W. Format: cell-based. The note with it: 1 μg/mL tunicamycin, 7 hours. The protocol: as §1, §2, §3, §4, §5

The target of experiment [4] is T4, eIF2B mutant B1 V183F (HEK293T ATF4-Fluc cells) (Homo sapiens, UniProt P49770+Q14232+Q9UI10, V183F).
T4 construct: endogenous in cells
The experiment can be described thus: ATF4-Luc assay, VWMD eIF2B mutant B1 V183F. It counts as cell-based. The note with it: 1 μg/mL tunicamycin, 7 hours. The method, then: as §1, §2, §3, §4, §5

For experiment [5], the target named is T5, eIF2B mutant B5 R195H (HEK293T ATF4-Fluc cells) (Homo sapiens, UniProt P49770+Q13144+Q9UI10, R195H).
T5 construct: endogenous in cells
The experiment can be described thus: ATF4-Luc assay, VWMD eIF2B mutant B5 R195H. The note with it: 1 μg/mL tunicamycin, 7 hours. It counts as cell-based. The method, then: as §1, §2, §3, §4, §5

Experiment [6] has as its target T6, eIF2B mutant B3 H341Q (HEK293T ATF4-Fluc cells) (Homo sapiens, UniProt P49770+Q9NR50+Q9UI10, H341Q).
T6 construct: endogenous in cells
The experiment can be described thus: ATF4-Luc assay, VWMD eIF2B mutant B3 H341Q. Format: cell-based. The settings on record: 1 μg/mL tunicamycin, 7 hours. The protocol:
as §1, §2, §3, §4, §5

Experiment [7] addresses T7, eIF2B mutant B4 R483W (HEK293T ATF4-Fluc cells) (Homo sapiens, UniProt P49770+Q9UI10, R483W).
T7 construct: endogenous in cells
The experiment can be described thus: ATF4-Luc assay, VWMD eIF2B mutant B4 R483W. Format: cell-based. The settings on record: 1 μg/mL tunicamycin, 7 hours. The method, then:
as §1, §2, §3, §4, §5

Experiment [8] deals with ATF4 luciferase reporter in HEK293T cells. The experiment can be described thus: ATF4-Luc assay (ATF4 luciferase reporter, tunicamycin-treated HEK293T cells). It counts as cell-based, human. The note with it: Homo sapiens, HEK-293T; HEK293T cells carrying the ATF4 luciferase reporter, 1 μg/mL tunicamycin, 7 hours. A general note: In a reporter assay the amount or activity of a reporter protein is the signal.

T6 sequence (Q9NR50 whole entry H341Q): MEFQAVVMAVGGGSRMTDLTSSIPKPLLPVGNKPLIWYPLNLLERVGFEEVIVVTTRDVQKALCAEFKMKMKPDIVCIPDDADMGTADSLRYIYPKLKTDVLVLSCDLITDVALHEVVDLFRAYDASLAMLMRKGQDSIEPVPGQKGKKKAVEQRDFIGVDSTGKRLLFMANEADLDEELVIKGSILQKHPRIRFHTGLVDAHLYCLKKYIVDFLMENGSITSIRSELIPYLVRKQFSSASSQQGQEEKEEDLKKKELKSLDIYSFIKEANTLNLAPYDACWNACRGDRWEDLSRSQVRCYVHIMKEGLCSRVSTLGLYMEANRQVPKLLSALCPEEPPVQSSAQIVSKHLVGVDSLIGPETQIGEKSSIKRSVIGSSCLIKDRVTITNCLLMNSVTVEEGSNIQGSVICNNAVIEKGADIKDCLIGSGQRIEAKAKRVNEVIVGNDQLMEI
T6 sequence (Q14232 whole entry partner): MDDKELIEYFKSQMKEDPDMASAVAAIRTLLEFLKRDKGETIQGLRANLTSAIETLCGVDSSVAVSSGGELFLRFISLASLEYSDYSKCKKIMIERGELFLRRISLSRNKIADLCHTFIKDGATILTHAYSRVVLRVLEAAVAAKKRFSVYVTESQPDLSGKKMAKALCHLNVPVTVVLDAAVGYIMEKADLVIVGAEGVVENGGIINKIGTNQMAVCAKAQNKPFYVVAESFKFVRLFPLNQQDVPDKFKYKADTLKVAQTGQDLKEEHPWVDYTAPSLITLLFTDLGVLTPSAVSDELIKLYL
T6 sequence (P49770 whole entry): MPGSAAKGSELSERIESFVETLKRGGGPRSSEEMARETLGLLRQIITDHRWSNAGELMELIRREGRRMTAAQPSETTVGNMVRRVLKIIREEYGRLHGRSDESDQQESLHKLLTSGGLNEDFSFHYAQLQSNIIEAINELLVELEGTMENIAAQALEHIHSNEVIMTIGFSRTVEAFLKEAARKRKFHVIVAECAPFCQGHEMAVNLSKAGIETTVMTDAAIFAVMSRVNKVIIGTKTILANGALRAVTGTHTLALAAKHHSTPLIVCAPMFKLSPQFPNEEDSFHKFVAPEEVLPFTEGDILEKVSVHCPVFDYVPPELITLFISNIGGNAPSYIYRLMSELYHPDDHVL
T6 sequence (Q9UI10 whole entry): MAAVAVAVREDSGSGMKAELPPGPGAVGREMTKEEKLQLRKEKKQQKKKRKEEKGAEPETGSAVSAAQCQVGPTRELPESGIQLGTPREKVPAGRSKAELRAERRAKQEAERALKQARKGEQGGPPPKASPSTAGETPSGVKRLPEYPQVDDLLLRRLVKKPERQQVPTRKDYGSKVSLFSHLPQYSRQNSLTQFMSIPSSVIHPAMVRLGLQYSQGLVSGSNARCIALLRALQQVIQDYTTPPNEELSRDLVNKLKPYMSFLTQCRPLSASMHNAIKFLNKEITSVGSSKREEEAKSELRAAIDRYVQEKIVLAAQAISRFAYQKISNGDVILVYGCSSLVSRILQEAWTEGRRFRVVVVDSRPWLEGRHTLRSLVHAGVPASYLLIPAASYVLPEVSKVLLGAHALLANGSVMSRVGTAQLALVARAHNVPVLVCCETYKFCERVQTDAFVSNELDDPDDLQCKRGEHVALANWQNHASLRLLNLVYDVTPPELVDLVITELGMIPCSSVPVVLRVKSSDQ
T6 sequence (Q13144 whole entry partner): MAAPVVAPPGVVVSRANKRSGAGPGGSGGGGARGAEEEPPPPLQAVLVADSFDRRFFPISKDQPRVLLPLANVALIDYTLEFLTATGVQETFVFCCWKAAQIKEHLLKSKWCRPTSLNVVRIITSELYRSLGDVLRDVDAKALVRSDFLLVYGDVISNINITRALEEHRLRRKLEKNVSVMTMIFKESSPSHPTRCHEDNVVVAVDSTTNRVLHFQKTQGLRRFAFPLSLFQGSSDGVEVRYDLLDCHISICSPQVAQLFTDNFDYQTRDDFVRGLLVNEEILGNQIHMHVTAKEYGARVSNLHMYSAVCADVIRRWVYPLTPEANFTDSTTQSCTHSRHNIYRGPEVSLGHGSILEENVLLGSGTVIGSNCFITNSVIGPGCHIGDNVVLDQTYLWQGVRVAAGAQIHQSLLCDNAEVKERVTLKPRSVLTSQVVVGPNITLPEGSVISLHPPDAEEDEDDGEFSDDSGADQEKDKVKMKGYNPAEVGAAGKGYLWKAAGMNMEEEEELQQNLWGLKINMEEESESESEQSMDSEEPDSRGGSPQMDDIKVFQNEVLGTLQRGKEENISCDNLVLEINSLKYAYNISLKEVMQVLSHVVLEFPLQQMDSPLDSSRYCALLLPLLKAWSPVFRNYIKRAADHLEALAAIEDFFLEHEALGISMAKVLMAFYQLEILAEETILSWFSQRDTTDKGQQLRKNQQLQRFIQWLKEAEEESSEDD
T3 sequence (Q9UI10 whole entry R357W): as the sequence (Q9UI10 whole entry) above, with R357W counted along it
T3 sequence (Q14232 whole entry partner): as the sequence (Q14232 whole entry partner) above
T3 sequence (P49770 whole entry): as the sequence (P49770 whole entry) above
T3 sequence (Q9NR50 whole entry partner): as the sequence (Q9NR50 whole entry H341Q) above, with Q341H counted along it
T3 sequence (Q13144 whole entry partner): as the sequence (Q13144 whole entry partner) above
T4 sequence (Q14232 whole entry V183F): as the sequence (Q14232 whole entry partner) above, with V183F counted along it
T4 sequence (P49770 whole entry): as the sequence (P49770 whole entry) above
T4 sequence (Q9NR50 whole entry partner): as the sequence (Q9NR50 whole entry H341Q) above, with Q341H counted along it
T4 sequence (Q9UI10 whole entry): as the sequence (Q9UI10 whole entry) above
T4 sequence (Q13144 whole entry partner): as the sequence (Q13144 whole entry partner) above
T5 sequence (Q13144 whole entry R195H): as the sequence (Q13144 whole entry partner) above, with R195H counted along it
T5 sequence (Q14232 whole entry partner): as the sequence (Q14232 whole entry partner) above
T5 sequence (P49770 whole entry): as the sequence (P49770 whole entry) above
T5 sequence (Q9NR50 whole entry partner): as the sequence (Q9NR50 whole entry H341Q) above, with Q341H counted along it
T5 sequence (Q9UI10 whole entry): as the sequence (Q9UI10 whole entry) above
T7 sequence (Q9UI10 whole entry R483W): as the sequence (Q9UI10 whole entry) above, with R483W counted along it
T7 sequence (Q14232 whole entry partner): as the sequence (Q14232 whole entry partner) above
T7 sequence (P49770 whole entry): as the sequence (P49770 whole entry) above
T7 sequence (Q9NR50 whole entry partner): as the sequence (Q9NR50 whole entry H341Q) above, with Q341H counted along it
T7 sequence (Q13144 whole entry partner): as the sequence (Q13144 whole entry partner) above
T2 sequence (Q13144 whole entry R113H): as the sequence (Q13144 whole entry partner) above, with R113H counted along it
T2 sequence (Q14232 whole entry partner): as the sequence (Q14232 whole entry partner) above
T2 sequence (P49770 whole entry): as the sequence (P49770 whole entry) above
T2 sequence (Q9NR50 whole entry partner): as the sequence (Q9NR50 whole entry H341Q) above, with Q341H counted along it
T2 sequence (Q9UI10 whole entry): as the sequence (Q9UI10 whole entry) above
T1 sequence (Q9NR50 whole entry I346T): as the sequence (Q9NR50 whole entry H341Q) above, with Q341H, I346T counted along it
T1 sequence (Q14232 whole entry partner): as the sequence (Q14232 whole entry partner) above
T1 sequence (P49770 whole entry): as the sequence (P49770 whole entry) above
T1 sequence (Q9UI10 whole entry): as the sequence (Q9UI10 whole entry) above
T1 sequence (Q13144 whole entry partner): as the sequence (Q13144 whole entry partner) above

In the case of `O=C(COc1ccc(Cl)c(F)c1)NC12CCC(NC(=O)COc3ccc(Cl)c(F)c3)(CC1)[C@@H](O)C2` (single isomer, unassigned) [Compound 297], the EC50 in experiment [1], in experiment [2], in experiment [3], in experiment [4], in experiment [5] and in experiment [6] was under 10 nM each time. The EC50 in experiment [7] and in experiment [8] was under 10 nM each time.
Regarding `O=C(COc1ccc(Cl)cc1)NC12CC(NC(=O)COc3ccc(Cl)cc3)(C1)C2` [Compound 112, N,N′-(bicyclo[1.1.1]pentane-1,3-diyl)bis[2-(4-chlorophenoxy)acetamide]], the EC50 in experiment [1], in experiment [2], in experiment [3], in experiment [4], in experiment [5] and in experiment [6] was under 10 nM in each case. In addition, the EC50 in experiment [7] and in experiment [8] was under 10 nM throughout.
For the molecule `Cc1noc(COCC(=O)NC23CC(NC(=O)COc4ccc(Cl)c(F)c4)(C2)C3)n1` [Compound 217, 2-(4-chloro-3-fluorophenoxy)-N-(3-{2-[(3-methyl-1,2,4-oxadiazol-5-yl)methoxy]acetamido}bicyclo[1.1.1]pentan-1-yl)acetamide], the EC50 in experiment [1] was 500 to 2000 nM; in experiment [2], over 2000 nM; in experiment [3] it was 500 to 2000 nM; in experiment [4], over 2000 nM; in experiment [5], 500 to 2000 nM; in experiment [6], 500 to 2000 nM. The EC50 is over 2000 nM in experiment [7] and 500 to 2000 nM in experiment [8].
For the molecule `O=C(COc1ccc(C(F)(F)F)nc1)NC12CC(NC(=O)COc3ccc(Cl)c(F)c3)(C1)C2` [Compound 175, 2-(4-chloro-3-fluorophenoxy)-N-[3-(2-{[6-(trifluoromethyl)pyridin-3-yl]oxy}acetamido)bicyclo[1.1.1]pentan-1-yl]acetamide], the EC50 in experiment [1] is under 10 nM; in experiment [2], 10 to 50 nM; in experiment [3], 10 to 50 nM; in experiment [4], 50 to 250 nM; in experiment [5], 10 to 50 nM; in experiment [6], 10 to 50 nM. The EC50 in experiment [7] and in experiment [8] was under 10 nM each time.
